Measurements reported in paper PMC6010138, “Synthesis and carbonic anhydrase I, II, VII, and IX inhibition studies with a series of benzo[d]thiazole-5- and 6-sulfonamides” (Journal of Enzyme Inhibition and Medicinal Chemistry, 2017).

Legend:
Assay in all cases: stopped-flow CO2 hydrase assay
Type in all cases: biochemical
hCA VII = target: T1, hCA VII (Homo sapiens, UniProt P43166)
T1 construct: gene CA7; recombinant, obtained in-house; cytosolic isoform
Description: stopped-flow CO2 hydrase assay on hCA VII

hCA IX = target: T2, hCA IX (Homo sapiens, UniProt Q16790)
T2 construct: gene CA9; recombinant, obtained in-house; transmembrane isoform

hCA II = target: T3, hCA II (Homo sapiens, UniProt P00918)
T3 construct: gene CA2; recombinant, obtained in-house; cytosolic isoform
Description: stopped-flow CO2 hydrase assay on hCA II

hCA I = target: T4, hCA I (Homo sapiens, UniProt P00915)
T4 construct: gene CA1; recombinant, obtained in-house; cytosolic isoform
T4 sequence (P00915 2-261): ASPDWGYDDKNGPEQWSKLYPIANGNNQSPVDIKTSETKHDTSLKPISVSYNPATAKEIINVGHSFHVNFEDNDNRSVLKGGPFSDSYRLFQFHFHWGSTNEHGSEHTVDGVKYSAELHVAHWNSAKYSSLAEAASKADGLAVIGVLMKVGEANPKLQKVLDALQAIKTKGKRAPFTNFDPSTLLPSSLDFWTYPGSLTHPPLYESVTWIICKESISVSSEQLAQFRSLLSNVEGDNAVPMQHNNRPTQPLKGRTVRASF

T1 sequence (P43166 whole entry, canonical isoform): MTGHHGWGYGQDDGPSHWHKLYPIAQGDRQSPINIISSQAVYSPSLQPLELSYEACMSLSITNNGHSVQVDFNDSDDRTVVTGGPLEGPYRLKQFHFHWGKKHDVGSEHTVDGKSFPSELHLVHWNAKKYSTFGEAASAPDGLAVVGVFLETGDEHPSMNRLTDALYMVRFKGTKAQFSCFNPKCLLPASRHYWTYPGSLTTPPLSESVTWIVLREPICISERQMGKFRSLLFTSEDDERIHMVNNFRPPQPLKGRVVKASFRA

SMILES	Ki (hCA VII)	Ki (hCA IX)	Ki (hCA II)	Ki (hCA I)
Nc1nc2c(I)cc(S(N)(=O)=O)cc2s1 [compound 7, 2-Amino-4-iodobenzo[d]thiazole-6-sulfonamide]	92.3 nM	212 nM	15.1 nM	606 nM
Nc1nc2c(I)c(S(N)(=O)=O)ccc2s1 [compound 8, 2-Amino-4-iodobenzo[d]thiazole-5-sulfonamide]	42.2 nM	100 nM	51.5 nM	482 nM
CC(=O)Nc1nc2c(Br)cc(S(N)(=O)=O)cc2s1 [compound 10, N-(4-bromo-6-sulfamoylbenzo[d]thiazol-2-yl)acetamide]	80.6 nM	34.4 nM	211 nM	2330 nM
NC(=S)Nc1ccc(S(N)(=O)=O)cc1 [compound 1, 4-Thioureido-benzenesulfonamide]	75.4 nM	32.9 nM	70 nM	471 nM
Nc1nc2c(Br)c(S(N)(=O)=O)ccc2s1 [compound 6, 2-Amino-4-bromobenzo[d]thiazole-5-sulfonamide]	0.8 nM	29.6 nM	7.8 nM	705 nM
CC(=O)Nc1nc2cc(S(N)(=O)=O)ccc2s1 [compound 11, N-(5-sulfamoylbenzo[d]thiazol-2-yl)acetamide]	81.5 nM	32.6 nM	42 nM	341 nM
NS(=O)(=O)c1ccc2nc(NC(=O)c3ccccc3C(=O)O)sc2c1 [compound 12, 2-((6-Sulfamoylbenzo[d]thiazol-2-yl)carbamoyl)benzoic acid]	46.5 nM	10 nM	13.5 nM	97.1 nM
Nc1nc2ccc(S(N)(=O)=O)cc2s1 [compound 2, 2-Aminobenzo[d]thiazole-6-sulfonamide]	84.2 nM	3.7 nM	33.6 nM	84.1 nM
Nc1nc2c(Br)cc(S(N)(=O)=O)cc2s1 [compound 5, 2-Amino-4-bromobenzo[d]thiazole-6-sulfonamide]	31.1 nM	16.2 nM	8.7 nM	306 nM
NC(=S)Nc1cccc(S(N)(=O)=O)c1 [compound 3, 3-Thioureidobenzenesulfonamide]	75 nM	296 nM	149 nM	917 nM
CC(=O)Nc1nc2ccc(S(N)(=O)=O)cc2s1 [compound 9, N-(6-sulfamoylbenzo[d]thiazol-2-yl)acetamide]	54.4 nM	23.2 nM	20.8 nM	361 nM
Nc1nc2cc(S(N)(=O)=O)ccc2s1 [compound 4, 2-Aminobenzo[d]thiazole-5-sulfonamide]	56.5 nM	38.2 nM	369 nM	795 nM
